Measured values as given in patent publication US7132547B2, “Preventives/remedies for urinary disturbance” (priority 2001, dated 2006).
Where a name gives a salt, the structure may show the parent alone.

Work on COc1ccc(CCNCCCCCC(=O)c2cc3c4c(c2)CCN4C(=O)CC3)cc1.Cl yielded a melting point of 179 to 180 °C.
Cl.O=C(CCCCNCCc1cccc(F)c1)c1cc2c3c(c1)CCN3C(=O)CC2 gave a melting point of 172 to 173 °C.
For Cl.O=C(CCCCCNCCc1ccccc1Cl)c1cccs1, the melting point was 149 to 151 °C.
Work on COc1ccccc1CCNCCCCC(=O)c1ccc(OC)c(S(N)(=O)=O)c1.Cl yielded a melting point of 139 to 141 °C.
Cl.O=C(CCCCNCCc1c(Cl)cccc1Cl)c1cc2c3c(c1)CCN3C(=O)CC2 showed a melting point of 171 to 174 °C.
COc1ccccc1CCNCCCCC(=O)c1c[nH]c2ccccc12.Cl showed a melting point of 143 to 145 °C.
Compound CN(CCCCC(=O)c1ccc2[nH]c(=O)[nH]c2c1)CCc1ccccc1.Cl has a melting point of 240 °C.
For CN(CCCCC(=O)c1ccc2c(c1)n(C)c(=O)n2C)CCc1ccccc1.Cl, the melting point was 142 to 157 °C (dec.).
Cl.O=C(CCCCNCCc1ccccc1O)c1cc2c3c(c1)CCN3C(=O)CC2 gave a melting point of 112 to 113 °C.
Compound COc1ccccc1CCNCCCCC(=O)c1ccc(OC)c(NS(C)(=O)=O)c1.Cl has a melting point of 129 to 131 °C.
In the case of COc1ccccc1CCN(C)CCCCC(=O)c1ccc2[nH]c(=O)[nH]c2c1.Cl, the melting point is reported as 169 to 180 °C (dec.).
Compound COc1ccccc1CCNCCCCCC(=O)c1ccc(OC)c(NS(C)(=O)=O)c1.Cl has a melting point of 142 to 144 °C.
For Cl.O=C(CCCCNCCc1ccccc1Cl)c1cc2c3c(c1)CCN3C(=O)CC2, the melting point was 128 to 130 °C.
In the case of Cc1ccccc1CCN1CCC(CCC(=O)c2cc3c4c(c2)CCN4C(=O)CC3)CC1.Cl, the melting point is reported as 215 to 216 °C.
COc1ccccc1CCNCCCCC(=O)c1cccs1.Cl gave a melting point of 101 to 103 °C.
Work on Cl.O=C(CCCCNC1Cc2ccccc2C1)c1cc2c3c(c1)CCN3C(=O)CC2 yielded a melting point of 187 to 189 °C.
In the case of Cl.O=C(CCC1CCN(C2CCc3ccccc3C2)CC1)c1cc2c3c(c1)CCN3C(=O)CC2 (racemic), the melting point is reported as 223 to 225 °C.
Work on Cl.O=C(CCCN1CCCc2ccccc2C1)c1cc2c3c(c1)CCN3C(=O)CC2 yielded a melting point of 230 to 232 °C.
In the case of COc1ccccc1CCN(C)CCCCC(=O)c1ccc2c(c1)CNC(=O)N2.Cl, the melting point is reported as 170 to 171 °C (dec.).
COc1ccc(C(=O)CCCCNCCc2ccccc2Cl)cc1S(=O)(=O)NC(C)C.Cl showed a melting point of 179 to 181 °C.
For Cl.O=C(CCC1CCN(CCCc2ccccc2)CC1)c1cc2c3c(c1)CCN3C(=O)CC2, the melting point was 173 to 175 °C.
Work on COc1ccc(C(=O)CCCCNCCc2ccccc2Cl)cc1NS(C)(=O)=O.Cl yielded a melting point of 133 to 135 °C.
Work on COc1ccc(CCNCCCCC(=O)c2cc3c4c(c2)CCN4C(=O)CC3)cc1.Cl yielded a melting point of 179 to 181 °C.
Compound Cl.O=C(CCCCNCCc1ccccc1Cl)c1c[nH]c2ccccc12 has a melting point of 149 to 151 °C.
Work on Cl.O=C(CCC1CCN(CC(=O)c2ccccc2)CC1)c1cc2c3c(c1)CCN3C(=O)CC2 yielded a melting point of 114 to 116 °C.
For COc1ccc(C(=O)CCCCNCCc2ccccc2)cc1NS(C)(=O)=O.Cl, the melting point was 131 to 133 °C.
Cl.O=C(CCCCCN1CCc2ccccc2CC1)c1cc2c3c(c1)CCN3C(=O)CC2 showed a melting point of 222 to 225 °C.
For COc1ccc(C(=O)CCCCCNCCc2ccccc2Cl)cc1NS(C)(=O)=O.Cl, the melting point was 112 to 115 °C.
For COc1ccccc1CCN(C)CCCCC(=O)c1ccc2c(c1)CN(C)C(=O)N2C.Cl, the melting point was 145 to 146 °C.
For COc1ccccc1CCNCCCC(=O)c1cc2c3c(c1)CCN3C(=O)CC2.Cl, the melting point was 165 to 167 °C.
Compound COc1cccc(CCNCCCCC(=O)c2cc3c4c(c2)CCN4C(=O)CC3)c1OC.Cl has a melting point of 154 to 156 °C.
For Cl.O=C1NCc2cc(C(=O)CCCCNCCc3ccccc3)ccc2N1, the melting point was 199 to 205 °C (dec.).
With Cl.NS(=O)(=O)c1cc(C(=O)CCCCNCCc2ccccc2)cc2c1OCCO2 the melting point was 152 to 154 °C.
For Cl.O=C(CCC1CCN(C2Cc3ccccc3C2)CC1)c1cc2c3c(c1)CCN3C(=O)CC2, the melting point was 290 °C (dec.).
Cl.O=C(CCC1CCN(CCc2ccc(Cl)cc2)CC1)c1cc2c3c(c1)CCN3C(=O)CC2 showed a melting point of 204 to 206 °C.
With Cl.O=C1CCc2cc(C(=O)[C@H]3CC[C@H](CNCCc4ccccc4Cl)CC3)cc3c2N1CC3 the melting point was 271 °C.
With Cl.O=C1NCc2cc(C(=O)CCCCNCCc3ccccc3Cl)ccc2N1 the melting point was 176 to 185 °C (dec.).
CCOc1ccccc1OCCN1CCC(CCC(=O)c2ccc(OC)c(NC(C)=O)c2)CC1.Cl gave a melting point of 127 to 129 °C.
COc1cccc(CCN2CCC(CCC(=O)c3cc4c5c(c3)CCN5C(=O)CC4)CC2)c1.Cl showed a melting point of 240 to 242 °C.
For Cl.O=C(CCC1CCN(CCc2c(Cl)cccc2Cl)CC1)c1cc2c3c(c1)CCN3C(=O)CC2, the melting point was 226 to 229 °C.
In the case of Cl.O=C(CCC1CCN(C2CCc3ccccc32)CC1)c1cc2c3c(c1)CCN3C(=O)CC2 (racemic), the melting point is reported as 111 to 113 °C.
In the case of CC(Cc1ccccc1)N1CCC(CCC(=O)c2cc3c4c(c2)CCN4C(=O)CC3)CC1.Cl (racemic), the melting point is reported as 211 to 213 °C.
Work on Cl.O=C(CCCCNCCc1ccccc1Cl)c1cccs1 yielded a melting point of 146 to 147 °C.
In the case of Cl.O=C(CCCCCNCCc1ccccc1Cl)c1c[nH]c2ccccc12, the melting point is reported as 151 to 153 °C.
For COc1ccc(C(=O)CCCCNCCc2ccccc2)cc1S(N)(=O)=O.Cl, the melting point was 160 to 168 °C.
Work on COc1ccccc1CCNCCCCC(=O)c1cc2c(c(S(N)(=O)=O)c1)OCCO2.Cl yielded a melting point of 166 to 168 °C.
For COc1ccc(CCN2CCC(CCC(=O)c3cc4c5c(c3)CCN5C(=O)CC4)CC2)cc1.Cl, the melting point was 141 to 143 °C.
Work on Cl.O=C(CCC1CCN(CC(O)c2ccccc2)CC1)c1cc2c3c(c1)CCN3C(=O)CC2 (racemic) yielded a melting point of 235 to 237 °C.
Compound Cl.O=C(CCCCNCCc1ccccc1)c1cc2c3c(c1)CCN3C(=O)CC2 has a melting point of 166 to 168 °C.
Cl.O=C(CCC1CCN(CCc2c[nH]c3ccccc23)CC1)c1cc2c3c(c1)CCN3C(=O)CC2 gave a melting point of 157 to 159 °C.
CCOc1ccccc1OCCN1CCC(CCC(=O)c2ccc(OC)c(N)c2)CC1 (as salt: hydrochloride) gave a melting point of 123 to 125 °C.
Work on Cl.O=C(CCCCNCCCc1ccccc1)c1cc2c3c(c1)CCN3C(=O)CC2 yielded a melting point of 116 to 118 °C.
For Cl.O=C(CCC1CCN(CCc2ccccc2F)CC1)c1cc2c3c(c1)CCN3C(=O)CC2, the melting point was 210 to 212 °C.
Compound Cl.O=C(CCCCCN1CCCc2ccccc2C1)c1cc2c3c(c1)CCN3C(=O)CC2 has a melting point of 195 to 197 °C.
Work on Cl.O=C(CCC1CCN(CCc2ccc([N+](=O)[O-])cc2)CC1)c1cc2c3c(c1)CCN3C(=O)CC2 yielded a melting point of 217 to 219 °C.
COc1ccccc1CCNCCCCC(=O)c1cc2c3c(c1)CC(=O)N3CCC2.Cl gave a melting point of 169 to 170 °C.
COc1cc2c(cc1OC)CN(CCCCCC(=O)c1cc3c4c(c1)CCN4C(=O)CC3)CC2.Cl showed a melting point of 216 to 218 °C.
In the case of Cl.O=C(CCCCNC1CCc2ccccc21)c1cc2c3c(c1)CCN3C(=O)CC2 (racemic), the melting point is reported as 98 to 100 °C.
Cl.O=C(CCC1CCN(CCc2cccc(Cl)c2)CC1)c1cc2c3c(c1)CCN3C(=O)CC2 showed a melting point of 223 to 225 °C.
For CN(CCCCC(=O)c1ccc2c(c1)CN(C)C(=O)N2C)CCc1ccccc1Cl.Cl, the melting point was 187 to 188 °C.
Compound Cl.O=C(CCCCNCCc1ccc(Cl)cc1)c1cc2c3c(c1)CCN3C(=O)CC2 has a melting point of 193 to 195 °C.
CN(CCCCC(=O)c1ccc2c(c1)CNC(=O)N2)CCc1ccccc1.Cl gave a melting point of 164 to 166 °C.
Compound Cl.O=C(CCCCCNCc1ccccc1)c1cc2c3c(c1)CCN3C(=O)CC2 has a melting point of 181 to 183 °C.
With COc1ccccc1CCNCCCCC(=O)c1cc2c(c(S(=O)(=O)NC(C)C)c1)OCC2.Cl the melting point was 157 to 159 °C.
With COc1ccccc1CCN1CCC(CCC(=O)c2cc3c4c(c2)CCN4C(=O)CC3)CC1.Cl the melting point was 209 to 211 °C.
In the case of COc1ccccc1CCN(C)CCCCC(=O)c1ccc2c(c1)n(C)c(=O)n2C.Cl, the melting point is reported as 125 to 140 °C (dec.).
Compound Cl.NS(=O)(=O)c1cc(C(=O)CCCCNCCc2ccccc2Cl)cc2c1OCCO2 has a melting point of 178 to 180 °C.
For Cc1cccc(CCN2CCC(CCC(=O)c3cc4c5c(c3)CCN5C(=O)CC4)CC2)c1.Cl, the melting point was 197 to 199 °C.
In the case of O=C(CCC1CCN(CCc2ccccc2)CC1)c1cc2c3c(c1)CCN3C(=O)CC2 (as salt: hydrochloride), the melting point is reported as 219 to 221 °C.
Compound CCOc1ccccc1CCN1CCC(CCC(=O)c2cc3c4c(c2)CCN4C(=O)CC3)CC1.Cl has a melting point of 182 to 184 °C.
With CN(CCCCCC(=O)c1cc2c3c(c1)CCN3C(=O)CC2)CCc1ccccc1.Cl the melting point was 83 to 85 °C.
Compound COc1ccccc1CCNCCCCCC(=O)c1cccs1.Cl has a melting point of 107 to 109 °C.
COc1cc2c(cc1OC)CN(CCCCC(=O)c1cc3c4c(c1)CCN4C(=O)CC3)CC2.Cl gave a melting point of 215 to 217 °C.
In the case of Cl.O=C(CCCCNCCc1ccccc1Cl)c1ccc2[nH]c(=O)[nH]c2c1, the melting point is reported as 233 °C.
With CN(CCCCC(=O)c1ccc2c(c1)CN(C)C(=O)N2C)CCc1ccccc1.Cl the melting point was 174 to 176 °C.
Compound COc1ccccc1CCNCCCCC(=O)c1ccc(OC)c(S(=O)(=O)NC(C)C)c1.Cl has a melting point of 164 to 166 °C.
Compound COc1cccc(CCNCCCCCC(=O)c2cc3c4c(c2)CCN4C(=O)CC3)c1.Cl has a melting point of 136 to 138 °C.
For COc1ccc(CCNCCCCC(=O)c2cc3c4c(c2)CCN4C(=O)CC3)cc1S(N)(=O)=O.Cl, the melting point was 145 °C (dec.).
Compound Cl.O=C(CCC1CCN(CCc2ccccc2Cl)CC1)c1cc2c3c(c1)CCN3C(=O)CC2 has a melting point of 207 to 210 °C.
Cl.Cn1c(=O)n(C)c2cc(C(=O)CCCCNCCc3ccccc3)ccc21 gave a melting point of 187 to 189 °C.
Work on Cl.O=C1CCc2cc(C(=O)[C@H]3CC[C@H](CNCCc4ccccc4)CC3)cc3c2N1CC3 (stereo in doubt) yielded a melting point of 252 to 254 °C.
COc1ccc2c(c1)CCCN(CCCC(=O)c1cc3c4c(c1)CCN4C(=O)CC3)C2.Cl showed a melting point of 121 to 123 °C.
COc1cccc(CCNCCCCC(=O)c2cc3c4c(c2)CCN4C(=O)CC3)c1.Cl showed a melting point of 97 to 100 °C.
Compound COc1ccc(C(=O)CCCCNCCc2ccccc2Cl)cc1S(N)(=O)=O.Cl has a melting point of 161 to 163 °C.
With COc1ccccc1CCNCCCCC(=O)c1ccc2c(c1)CNC(=O)N2.Cl the melting point was 176 to 180 °C (dec.).
COc1cccc(CCN(C)CCCCCC(=O)c2cc3c4c(c2)CCN4C(=O)CC3)c1.Cl gave a melting point of 116 to 118 °C.
COc1ccccc1CCNCCCCC(=O)c1cc2c3c(c1)CCN3C(=O)CC2.Cl showed a melting point of 94 to 96 °C.
